In publication PMC9699089 (Pathogens, 2022):
Read-outs that look alike come from different tables or passages of the source.

Key:
[1] = system: Plasmodium telomeric sequence FPf1T G-quadruplex; experiment: FRET melting assay, FPf1T; assay type: binding, Plasmodium falciparum; details: compound 2 μM, oligonucleotide 0.2 μM, K+ conditions
Protocol: (§1) These were performed with dual-labeled oligonucleotides mimicking the Plasmodium telomeric sequences FPf1T [FAM-5′(GGGTTTA)3-GGG3′-TAMRA] and FPf8T [FAM-5′(GGGTTCA)3GGG3′-TAMRA], the Trypanosoma 9 and 11 chromosomic sequence FTrypBT (also named FEBR1T) [FAM-5′[…]3′-TAMRA], the human telomeric sequence F21T [FAM-(GGGTTA)3-GGG3′-TAMRA] and the human duplex sequence FdxT [FAM5′-[…]-hexaethyleneglycol-[…]3′-TAMRA] [27, 31, 47]. The oligonucleotides were pre-folded in 10 mM lithium cacodylate buffer (pH 7.2), with 10 mM KCl and 90 mM LiCl (K^+ condition). The FAM emissions were recorded at 516 nm using a 492-nm excitation wavelength in the absence and presence of a single compound as a function of temperature (25 to 95 °C) in 96-well microplates using a Stratagene MX3000P real-time PCR device at a rate of 1 °C∙min-1. Data were normalized between 0 and 1, and the required temperature for half-denaturation of oligonucleotides corresponding to the emission value of 0.5 was taken as the Tm. Each experiment was performed in duplicate with 0.2 µM of labeled oligonucleotide and 2 µM of compound under K^+ condition. For each compound, three independent experiments were carried out.

[2] = system: T. brucei brucei AnTat 1.9; experiment: In vitro antitrypanosomal activity, Alamar Blue assay; assay type: cell-based, Trypanosoma brucei brucei; details: Trypanosoma brucei, slender bloodstream trypomastigotes, AnTat 1.9 strain; mean +/- SD of three independent experiments; read-out: Trypanosoma brucei brucei IC50 Values Trypanos Antat 1.9
In short: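 Bloodstream T. brucei brucei AnTat 1.9 cultured in supplemented MEM with Earle's salts and exposed to compounds in duplicate for 69 h at 37 °C. Alamar Blue then added for 5 h, with fluorescence read at ex 530/em 590 nm.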

[3] = system: L. donovani (MHOM/IN/00/DEVI) promastigotes; experiment: In vitro antileishmanial activity on promastigotes, MTT assay; assay type: cell-based; details: Leishmania donovani, 72 h incubation, mean +/- SD of three independent experiments
In short: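 Log-phase L. donovani MHOM/IN/00/DEVI promastigotes at 10^6 parasites/mL in Schneider's medium with 20% FCS were exposed to compounds for 72 h at 27 °C, final DMSO under 0.5%. Viability was read by MTT reduction over 4 h, absorbance 570 nm (630 nm reference). IC50 came from regression, three independent experiments.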

[4] = system: human duplex sequence FdxT; experiment: FRET melting assay, duplex control FdxT; assay type: binding; details: compound 2 μM, oligonucleotide 0.2 μM, K+ conditions
Protocol: as §1

[5] = target: G4-forming oligonucleotide Pf8 (d[(G3T2CA)3G3]); experiment: Native electrospray mass spectrometry, Pf8; assay type: binding, Plasmodium; details: 100 mM TMAA, 1 mM KCl
Protocol: (§2) Oligonucleotides were purchased in the lyophilized form from Eurogentec (RP-cartridge purification), and dissolved at 1 mM in pure water. TMAA (1 M) was purchased from Santa Cruz Biotechnology and potassium chloride (purity > 99.99%) from Sigma Aldrich (Sigma Aldrich, Saint-Quentin-Fallavier, France). The sample solutions contained 10 µM oligonucleotide and 10 (for CD only) or 20 µM ligand, in a 100 mM TMAA, 1mM KCl buffer. The solutions were incubated overnight at 4 °C before analysis.
(§3) The sample solutions were injected at a 10 µM strand concentration on an Agilent 6560 DTIMS-Q-TOF instrument (Agilent Technologies, Santa Clara, CA, USA), equipped with a dual-ESI source operated in the negative ion mode in soft conditions. The following parameters were used: fragmentor 320 V, trap fill time 1000 µs, trap release time 200 µs, trap entrance grid delta 2 V. The drift tube was filled with helium and the pressure was fixed at 3.89 ± 0.01 Torr (measured by a capacitance diaphragm gauge CDG-500, Agilent Technologies).
(§4) The MS data were extracted using the IM-MS Browser (v. B.08.00; Agilent Technologies). The peak area intensity of each species at the 5- charge state was extracted from their corresponding m/z range (encompassing potassium adducts), and baseline subtracted. The concentrations of all species (free DNA, free ligands, and complexes) and corresponding dissociation constants were determined as previously described.

[6] = system: Trypanosoma 9 and 11 chromosomic sequence FTrypBT (FEBR1T) G-quadruplex; experiment: FRET melting assay, FtrypBT; assay type: binding, Trypanosoma brucei brucei; details: compound 2 μM, oligonucleotide 0.2 μM, K+ conditions
In short: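 Dual-labelled FAM/TAMRA oligonucleotides (0.2 µM) pre-folded in 10 mM lithium cacodylate pH 7.2, 10 mM KCl, 90 mM LiCl, with 2 µM compound. FAM emission (ex 492/em 516 nm) followed from 25 to 95 °C at 1 °C/min; Tm is the temperature at normalized emission 0.5, compared with and without compound.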

[7] = target: G-rich unfolded single-stranded sequence 24nonG4; experiment: Native electrospray mass spectrometry, 24nonG4; assay type: binding; parameters: key to Kd 24nonG4, stoichiometry 2 (Kd2) / Kd 24nonG4, stoichiometry 1 (Kd1): n.b.: no binding detected; <LOQ: binding detected but below limit of quantitation; details: 100 mM TMAA, 1 mM KCl; for Kd: read-out: Kd 24nonG4, stoichiometry 1 (Kd1); for Kd 24nonG4, stoichiometry 2 (Kd2): 2:1 ligand:DNA complex
Protocol: as §2, §3, §4

[8] = target: duplex-forming sequence DK66; experiment: Native electrospray mass spectrometry, DK66; assay type: binding; parameters: key to Kd DK66, stoichiometry 2 (Kd2) / Kd DK66, stoichiometry 1 (Kd1): n.b.: no binding detected; <LOQ: binding detected but below limit of quantitation; details: 100 mM TMAA, 1 mM KCl; for Kd: read-out: Kd DK66, stoichiometry 1 (Kd1); for Kd DK66, stoichiometry 2 (Kd2): 2:1 ligand:DNA complex
Protocol: as §2, §3, §4

[9] = 1:1 ligand:DNA complex, read-out: Kd Pf8, stoichiometry 1 (Kd1)
[10] = 2:1 ligand:DNA complex, read-out: Kd Pf8, stoichiometry 2 (Kd2)

Structure (SMILES)	ΔTm FPf1T [1] [°C]	IC50 [2] [µM]	IC50 [3] [µM]	ΔTm FdxT [4] [°C]	Kd [5, 9] [µM]	Kd [5, 10] [µM]	ΔTm FtrypBT [6] [°C]	Kd ([7]; 1:1 ligand:DNA complex) [µM]	Kd 24nonG4, stoichiometry 2 (Kd2) [7]	Kd ([8]; 1:1 ligand:DNA complex) [µM]	Kd DK66, stoichiometry 2 (Kd2) [8]	Kd Pf8, stoichiometry 1 (Kd1) ([5]; 1:1 ligand:DNA complex)	Kd 24nonG4, stoichiometry 1 (Kd1) ([7]; 1:1 ligand:DNA complex)	Kd DK66, stoichiometry 1 (Kd1) ([8]; 1:1 ligand:DNA complex)
CN(C)CCCCNCc1cc(-c2ccccc2)c2ccc3c(-c4ccccc4)cc(CNCCCCN(C)C)nc3c2n1 [Compound 1c, 2,9-Bis[(4-dimethylaminobutyl)aminomethyl]-4,7-diphenyl-1,10-phenanthroline]	8.9	0.86 ± 0.16	> 12.5	−0.5	3	50	10.6	9	<LOQ	110	n.b.	–	–	–
CN(C)CCCCCNCc1cc(-c2ccccc2)c2ccc3c(-c4ccccc4)cc(CNCCCCCN(C)C)nc3c2n1 [Compound 1d, 2,9-Bis[(5-dimethylaminopentyl)aminomethyl]-4,7-diphenyl-1,10-phenanthroline]	18.8	1.42 ± 0.1	> 12.5	1.8	3	16	14.7	11	<LOQ	53	n.b.	–	–	–
c1ccc(-c2cc(CNCCCN3CCCC3)nc3c2ccc2c(-c4ccccc4)cc(CNCCCN4CCCC4)nc23)cc1 [Compound 1l]	15.4	1.13 ± 0.06	> 12.5	0.7	2	59	11.6	8	<LOQ	55	n.b.	–	–	–
c1ccc(-c2cc(CNCCc3ccccn3)nc3c2ccc2c(-c4ccccc4)cc(CNCCc4ccccn4)nc23)cc1 [Compound 1m]	1.3	–	> 12.5	−0.2	83	–	1.8	–	–	–	–	very weakly bound	n.b.	n.b.
